From patent US6376501B1, “Type 2 helper T cell-selective immune response suppressors” (Japan Energy Corporation, priority 2000, dated 2002)

Assays:
BALB/c mice [1] = assay: Inhibitory effect on eosinophilic infiltration into the abdominal cavity of OVA-immunized mice; format: in vivo; conditions: for Ratio of Infiltrating Eosinophiles: cells collected two days after; for Inhibition: eosinophile ratio vs control
Procedure: Eight week-old male BALB/c mice were immunized with 1.6 mg of aluminium hydroxide gel (200 μl) adsorbing 100 μg of OVA by subcutaneous administration in the back. After 7 days, the mice received a booster injection of the same composition. Seven days after the booster administration, 10 μg of OVA in 200 μl of physiological saline was administered to the mice intraperitoneally. Two days after the intraperitoneal administration, abdominal cavity-infiltrating cells were collected with physiological saline. The total cell count and the eosinophile count in the collected cells were calculated by staining with Türk's solution and Hinkerman's solution, respectively. The test compound was administered orally 2 hours before the OVA intraperitoneal administration.

interferon-γ (IFN-γ) = assay: IFN-γ production from OVA-sensitized mouse spleen cells induced by antigen stimulation (ELISA); format: cell-based; conditions: OVA-stimulated sensitized spleen cells, 3 days culture supernatant
Procedure: (§1) 1) Preparation of Sensitized Mouse Spleen Cells
(§2) Seven week-old male BALB/c mice were immunized with 4 mg of aluminium hydroxide gel (100 μl) adsorbing 10 μg of ovalbumin (OVA) by intraperitoneal administration. After 14 days, the mice received a booster injection of the same composition. Seven days after the booster administration, the spleen was removed and suspended in RPMI-1640 medium containing inactivated bovine fetal serum (10% v/v), 2-mercaptoethanol (50 μM), penicillin G (100 U/ml) and streptomycin (100 μg/ml) to prepare a cell suspension.
(§3) 2) Cytokine Production Induced by Antigen Stimulation
(§4) To the spleen cell suspension (5×10^6 cells/200 μl/well), 1/1000 volume of dimethyl sulfoxide solution dissolving OVA (0.5 mg/ml) and a test compound at a specific concentration was added. Then, the cells were cultured at 37° C. under 5% CO2. After 3 days, cytokines in the culture supernatant were determined by ELISA. Specifically, as a Th1 type cytokine, interferon-γ, (IFN-γ) was determined using Mouse IFN-γ ELISA Kit (Amersham). As Th2 type cytokines, interleukin-4 (IL-4) and interleukin-5 (IL-5) were determined with Mouse IL-4 ELISA Kit (Amersham) and Mouse IL-5 ELISA minikit (Endogen), respectively.

interleukin-5 (IL-5) = assay: IL-5 production from OVA-sensitized mouse spleen cells induced by antigen stimulation (ELISA); format: cell-based; conditions: OVA-stimulated sensitized spleen cells, 3 days culture supernatant
Procedure: as §1, §2, §3, §4

interleukin-4 (IL-4) = assay: IL-4 production from OVA-sensitized mouse spleen cells induced by antigen stimulation (ELISA); format: cell-based; conditions: OVA-stimulated sensitized spleen cells, 3 days culture supernatant
Procedure: as §1, §2, §3, §4

BALB/c mice [2] = assay: Mouse FITC-induced contact dermatitis model (auricule swelling), ointment; format: in vivo; conditions: 10 μl on left auricule 2 hr before induction, 24 hr after induction
Procedure: As a control, Imiquimode (R-837; 4-amino-1-isobutyl-1H-imidazo[4,5-c]quinoline) disclosed in EP 145,340 A was used for comparison. Further, a steroid-type drug Rinderon™ ointment (Shionogi & Co.; 0.12% betamethasone valerate ointment) was used for reference.
The test compound was dissolved in an ointment base (PEG400:PEG4000=7:3) heated to about 80° C. to give a concentration of 1 mg/ml or 10 mg/ml, and then cooled to solid at room temperature to thereby prepare 0.1 or 1% macrogol ointment. Imiquimode (R-837), the control, was also formulated into 0.1 and 1% macrogol ointments.
Seven week-old male BALB/c mice were sensitized by applying 0.2 ml of 0.5% FITC in acetone/dibutyl phthalate (1:1) to the abdomen sheared in advance. Seven days after the sensitization, inflammation was induced by applying 10 μl of 0.5% FITC in acetone/dibutyl phthalate (1:1) to each side of the left auricule (total 20 μl). Before the induction and 24 hr after the induction, the thickness of the auricule was measured with a micrometer. The difference between the two values was taken as the swelling degree. The macrogoal ointment containing the test compound and Rinderon™ ointment (0.12% betamethasonevalerate) were applied to each side of the left auricule in an amount of 5 μl (total 10 μl) 2 hr before the induction. Mice in the placebo group were treated with the macrogol ointment base (PEG400:PEG4000=7:3).
The inflammation inhibitory effect of the ointment of the invention was calculated as an inhibition ratio relative to the swelling degree in the placebo group which was taken as 100%. For example, the inhibition ratios in the groups treated with ointments containing 0.1% and 1% of the compound of Example 59, i.e. 2-butyl-9-(p-fluorobenzyl)-8-hydroxyadenine were 67% and 33%, respectively.

[3] = 3 mg/kg orally 2 hours before OVA i.p.
[4] = 30 mg/kg orally 2 hours before OVA i.p.

SMILES	melting point	IFN-γ (interferon-γ (IFN-γ); test compound 0.1 μM)	IFN-γ (interferon-γ (IFN-γ); test compound 1 μM)	IFN-γ (interferon-γ (IFN-γ); test compound 10 μM)	IL-5 (interleukin-5 (IL-5); test compound 0.1 μM)	IL-5 (interleukin-5 (IL-5); test compound 1 μM)	IL-5 (interleukin-5 (IL-5); test compound 10 μM)	IL-4 (interleukin-4 (IL-4); test compound 0.1 μM)	IL-4 (interleukin-4 (IL-4); test compound 1 μM)	IL-4 (interleukin-4 (IL-4); test compound 10 μM)	further results
C[C@@H]1C[C@H]2[C@@H]3CCC4=CC(=O)C=C[C@]4(C)[C@@]3(F)[C@@H](O)C[C@]2(C)[C@@]1(O)C(=O)CO [Dexamethasone, reference compound]	–	–	–	–	–	–	–	–	–	–	Ratio of Infiltrating Eosinophiles (BALB/c mice [1]; [3]): 10.27%; Inhibition (BALB/c mice [1]; [3]): 18.9%
Nc1ncnc2c1nc(O)n2Cc1ccccc1 [Example 1, 9-Benzyl-8-Hydroxyadenine]	278 to 280 °C	–	–	–	–	–	–	–	–	–	–
CCCCn1c(O)nc2c(N)ncnc21 [Example 3, 9-Butyl-8-Hydroxyadenine]	222 to 224 °C	–	–	–	–	–	–	–	–	–	–
Nc1ncnc2c1nc(O)n2Cc1ccc(F)cc1 [Example 4, 9-(4-Fluorobenzyl)-8-Hydroxyadenine]	270 to 272 °C	–	–	–	–	–	–	–	–	–	–
CC(C)(C)OC(=O)Oc1nc2c(N)ncnc2n1Cc1ccccc1 [Example 10, 9-Benzyl-8-tert-Butyloxycarbonyloxyadenine]	287 to 289 °C	–	–	–	–	–	–	–	–	–	–
CC(=O)Oc1nc2c(N)ncnc2n1Cc1ccccc1 [Example 11, 9-Benzyl-8-Acetoxyadenine]	189 to 191 °C	–	–	–	–	–	–	–	–	–	–
Nc1ncnc2c1nc(OC(=O)c1ccccc1)n2Cc1ccccc1 [Example 12, 9-Benzyl-8-Benzoyloxyadenine]	227 to 229 °C	–	–	–	–	–	–	–	–	–	–
CCCCCCCC(=O)Oc1nc2c(N)ncnc2n1Cc1ccccc1 [Example 15, 9-Benzyl-8-Octanoyloxyadenine]	248 to 250 °C	–	–	–	–	–	–	–	–	–	–
Cc1nc(N)c2nc(O)n(Cc3ccccc3)c2n1 [Example 17, 9-Benzyl-8-Hydroxy-2-Methyladenine]	–	–	–	–	–	–	–	–	–	–	Ratio of Infiltrating Eosinophiles (BALB/c mice [1]; [4]): 4.70%; Inhibition (BALB/c mice [1]; [4]): 62.9%
Cc1nc(N)c2nc(O)n(Cc3cccc(Cl)c3)c2n1 [Example 18, 9-(m-Chlorobenzyl)-8-Hydroxy-2-Methyladenine]	–	26 ng/mL	63 ng/mL	181 ng/mL	4,150 pg/ml	2,321 pg/ml	710 pg/mL	254 pg/mL	<7.8 pg/mL	<7.8 pg/mL	–
Cc1nc(N)c2nc(S)n(Cc3ccccc3)c2n1 [Example 19, 9-Benzyl-8-Mercapto-2-Methyladenine]	–	16 ng/mL	50 ng/mL	139 ng/mL	4,482 pg/ml	1,782 pg/ml	643 pg/mL	296 pg/mL	29 pg/mL	<7.8 pg/mL	–
CCCCCc1nc(N)c2nc(O)n(Cc3ccccc3)c2n1 [Example 20, 9-Benzyl-8-Hydroxy-2-Pentyladenine]	–	135 ng/mL	193 ng/mL	219 ng/mL	1,667 pg/ml	670 pg/mL	524 pg/mL	20 pg/mL	<7.8 pg/mL	<7.8 pg/mL	IFN-γ (interferon-γ (IFN-γ); test compound 0.01 μM): 25 ng/mL; IL-5 (interleukin-5 (IL-5); test compound 0.01 μM): 3,792 pg/ml; Ratio of Infiltrating Eosinophiles (BALB/c mice [1]; [4]): 6.94%; Inhibition (BALB/c mice [1]; [4]): 46.2%; IL-4 (interleukin-4 (IL-4); test compound 0.01 μM): 208 pg/mL
Nc1nc(C2CCCCC2)nc2c1nc(O)n2Cc1ccccc1 [Example 21, 9-Benzyl-2-Cyclohexyl-8-Hydroxyadenine]	–	28 ng/mL	158 ng/mL	170 ng/mL	4,103 pg/ml	1,291 pg/ml	715 pg/mL	192 pg/mL	11 pg/mL	<7.8 pg/mL	–
Nc1nc(Cc2ccccc2)nc2c1nc(O)n2Cc1ccccc1 [Example 24, 2,9-Dibenzyl-8-Hydroxyadenine]	–	44 ng/mL	199 ng/mL	244 ng/mL	3,670 pg/ml	1,130 pg/ml	345 pg/mL	195 pg/mL	<7.8 pg/mL	<7.8 pg/mL	–
CC(C)c1nc(N)c2nc(O)n(Cc3ccccc3)c2n1 [Example 45, 9-Benzyl-8-Hydroxy-2-Isopropyladenine]	–	46 ng/mL	161 ng/mL	187 ng/mL	2,881 pg/ml	699 pg/mL	563 pg/mL	86 pg/mL	<7.8 pg/mL	<7.8 pg/mL	–
CCCCc1nc(N)c2nc(O)n(Cc3ccc(F)cc3)c2n1 [Example 59, 2-Butyl-9-(p-Fluorobenzyl)-8-Hydroxyadenine]	–	–	–	–	–	–	–	–	–	–	inhibition ratio relative to the swelling degree in the placebo group (BALB/c mice [2]; 0.1% macrogol ointment): 67%; inhibition ratio relative to the swelling degree in the placebo group (BALB/c mice [2]; 1% macrogol ointment): 33%
CC(C)Cn1cnc2c(N)nc3ccccc3c21 [Example R-837, 4-amino-1-isobutyl-1H-imidazo[4,5-c]quinoline, reference compound]	–	–	–	–	–	–	–	–	–	–	inhibition ratio relative to the swelling degree in the placebo group (BALB/c mice [2]; 0.1% macrogol ointment): 50%; inhibition ratio relative to the swelling degree in the placebo group (BALB/c mice [2]; 1% macrogol ointment): 67%
